Read-outs that look alike come from different tables or passages of the source.
How the values were obtained:
[1] = rat brain microdialysis, HPLC/UV; cited from earlier work
[2] = molecular target: T1, paraoxon-hAChE (Homo sapiens, UniProt P22303); assay type: biochemical
[3] = molecular target: T1, paraoxon-hAChE; conditions: cited from earlier work

T1 sequence (P22303 32-574): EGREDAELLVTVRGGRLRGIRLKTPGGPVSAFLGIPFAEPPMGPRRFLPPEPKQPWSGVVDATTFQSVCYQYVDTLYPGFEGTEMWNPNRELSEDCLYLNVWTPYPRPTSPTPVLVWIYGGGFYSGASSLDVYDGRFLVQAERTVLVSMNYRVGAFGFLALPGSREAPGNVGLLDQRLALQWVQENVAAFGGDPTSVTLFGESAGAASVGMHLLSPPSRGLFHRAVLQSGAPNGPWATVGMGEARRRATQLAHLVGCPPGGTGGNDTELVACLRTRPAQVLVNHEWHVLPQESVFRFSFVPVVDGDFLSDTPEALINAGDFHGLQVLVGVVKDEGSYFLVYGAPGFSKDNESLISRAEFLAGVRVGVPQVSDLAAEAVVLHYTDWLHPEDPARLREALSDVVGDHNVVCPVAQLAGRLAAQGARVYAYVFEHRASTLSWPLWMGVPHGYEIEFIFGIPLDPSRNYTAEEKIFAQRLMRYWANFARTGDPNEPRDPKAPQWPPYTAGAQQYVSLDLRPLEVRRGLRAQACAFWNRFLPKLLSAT

Q: With `C[n+]1ccccc1/C=N/O` [Compound 2-PAM] as the compound, how does the BBB penetration [1] read?
A: The BBB penetration was 10%.

Q: For `ON=Cc1nccc(CCCCCNc2c3c(nc4ccccc24)CCCC3)c1O` [Compound 10, 2-[(hydroxyimino)methyl]-4-{5-[(1,2,3,4-tetrahydroacridin-9-yl)amino]pentyl}pyridin-3-ol], which “reactivation of paraoxon inhibited hAChE” value [2] is on record?
A: The value was “no reactivation”.

Q: Which kr [2] does the source give for `O/N=C/c1nc(CCCCCNc2c3c(nc4ccccc24)CCCC3)ccc1O` [Compound 11, 2-[(1E)-(hydroxyimino)methyl]-6-{5-[(1,2,3,4-tetrahydroacridin-9-yl)amino]pentyl}pyridin-3-ol] here?
A: Its kr is 0.0228 ± 0.0006 min⁻¹.

Q: What about the kr2 [2] of the same compound?
A: Its kr2 is 348 M⁻¹ s⁻¹.

Q: Which kr [2] does the source give for `ON=Cc1nc(CCCCNc2c3c(nc4ccccc24)CCCC3)ccc1O` [Compound 12, 2-[1-(hydroxyimino)methyl]-6-{4-[(1,2,3,4-tetrahydroacridin-9-yl)amino]butyl}pyridin-3-ol] here?
A: Its kr is 0.111 ± 0.002 min⁻¹.

Q: And the kr2 [2]?
A: The kr2 was 517 M⁻¹ s⁻¹.

Q: Which kr [2] does the source give for `ON=Cc1nc(CCCCNc2c3c(nc4ccc(Cl)cc24)CCCC3)ccc1O` [Compound 15, 6-(4-((7-Chloro-1,2,3,4-tetrahydroacridin-9-yl)amino)butyl)-3-hydroxy-picolin-aldehyde oxime] here?
A: Its kr is 0.11 ± 0.01 min⁻¹.

Q: And the kr2 [2]?
A: The kr2 was 317 M⁻¹ s⁻¹.

Q: Which kr [3] does the source give for `ON=Cc1cc[n+](CCC[n+]2ccc(/C=N/O)cc2)cc1` [Trimedoxime] here?
A: Its kr is 0.34 ± 0.02 ^a min^−1.

Q: What about the kr2 [3] of the same compound?
A: Its kr2 is 17 ^a mM^−1min^−1.

— patent publication US20160272620A1 (priority 2013, published 2016)
